≈ marks a conversion by molar mass, not a printed value. Read-outs that look alike come from different tables or passages of the source.
Key:
M. tuberculosis biofilm = M. tuberculosis biofilm formation inhibition (crystal violet staining); type: cell-based, Mycobacterium tuberculosis; settings: for overall activity against M. tuberculosis: biofilm inhibition, normal growth inhibition and antibiotic synergism assays, preliminary results
Description: FIG. 1A-D. Anti-M. tuberculosis biofilm activity of 6-treAz (6-azido-6-deoxy-D-trehalose). The effects of various concentrations of 6-treAz treatment on M. tuberculosis biofilms were monitored by crystal violet (CV) staining assay (A and B). […] The effect of 6-treAz on TreS mediated maltose production. Y-axis is the amount of maltose produced (D).
Planktonic growth and biofilm assays. Evaluation of planktonic growth and biofilm formation inhibition for M. smegmatis was carried out as previously reported for other trehalose analogues (Carbohydr. Res. 2017, 450, 60-66). Evaluation of planktonic growth and biofilm formation inhibition for M. tuberculosis was carried out as previously reported for 6-TreAz (Nat. Commun., 2019, 2928-2928).

M. smegmatis = settings: cited from earlier work
M. tuberculosis [1] = test: M. tuberculosis planktonic growth inhibition; type: cell-based, Mycobacterium tuberculosis
M. smegmatis biofilm = M. smegmatis biofilm formation inhibition; type: cell-based, Mycobacterium smegmatis
M. tuberculosis [2] = settings: cited from earlier work
[3] = system: H37Rv lab strain (M. tuberculosis); type: cell-based, Mycobacterium tuberculosis; settings: for IC95 2-treNH2 / IC95 4-treNH2 / IC95 6-treNH2: H37Rv; for IC95 2-treNH2: antibiotic in combination with 2-treNH2; for IC95 4-treNH2: antibiotic in combination with 4-treNH2; for IC95 6-treNH2: antibiotic in combination with 6-treNH2

Row | SMILES | inhibition of M. smegmatis planktonic growth (previous research) (M. smegmatis) | inhibition of M. tuberculosis biofilm formation (M. tuberculosis biofilm) | inhibition of M. tuberculosis planktonic growth (M. tuberculosis [1]) | inhibition of M. smegmatis biofilm formation (M. smegmatis biofilm) | also measured
1 | [N-]=[N+]=N[C@H]1[C@@H](O[C@H]2O[C@H](CO)[C@@H](O)[C@H](O)[C@H]2O)O[C@H](CO)[C@@H](O)[C@@H]1O [2-TreAz, (2R,3R,4S,5S,6R)-2-(((2R,3R,4R,5S,6R)-3-azido-4,5-dihydroxy-6-(hydroxymethyl)tetrahydro-2H-pyran-2-yl)oxy)-6-(hydroxymethyl)tetrahydro-2H-pyran-3,4,5-triol] | exhibited planktonic growth inhibition |  |  |  | overall activity against M. tuberculosis (M. tuberculosis biofilm): top candidate
2 | [N-]=[N+]=N[C@@H]1[C@@H](O[C@H]2O[C@H](CO)[C@@H](O)[C@H](O)[C@H]2O)O[C@H](CO)[C@@H](O)[C@@H]1O [2-epi-TreAz, (2R,3R,4S,5S,6R)-2-(((2R,3S,4R,5S,6R)-3-azido-4,5-dihydroxy-6-(hydroxymethyl)tetrahydro-2H-pyran-2-yl)oxy)-6-(hydroxymethyl)tetrahydro-2H-pyran-3,4,5-triol] |  | can inhibit | can inhibit | selectively inhibits | inhibition of M. tuberculosis biofilm formation (M. tuberculosis biofilm; at 1 mM): completely blocks; overall activity against M. tuberculosis (M. tuberculosis biofilm): most potent; inhibition of M. tuberculosis biofilm formation (M. tuberculosis biofilm; listed as Epi-2-TreAz): completely inhibits; inhibition of M. tuberculosis planktonic growth (M. tuberculosis [1]; at 1 mM): completely blocks; inhibition of M. tuberculosis planktonic growth (M. tuberculosis [1]; listed as Epi-2-TreAz): completely inhibits; inhibition of M. smegmatis biofilm formation (M. smegmatis biofilm; at 1 mM): selectively blocks
3 | N[C@@H]1[C@@H](O[C@H]2O[C@H](CO)[C@@H](O)[C@H](O)[C@H]2O)O[C@H](CO)[C@@H](O)[C@@H]1O [2-epi-TreNH2, (2R,3R,4S,5S,6R)-2-(((2R,3S,4R,5S,6R)-3-amino-4,5-dihydroxy-6-(hydroxymethyl)tetrahydro-2H-pyran-2-yl)oxy)-6-(hydroxymethyl)tetrahydro-2H-pyran-3,4,5-triol] |  | do not | no inhibitory effects | no inhibitory effects | 
4 | [N-]=[N+]=N[C@@H]1[C@@H](O)[C@@H](O[C@H]2O[C@H](CO)[C@@H](O)[C@H](O)[C@H]2O)O[C@H](CO)[C@H]1O [3-TreAz, (2R,3R,4S,5S,6R)-2-(((2R,3R,4S,5S,6R)-4-azido-3,5-dihydroxy-6-(hydroxymethyl)tetrahydro-2H-pyran-2-yl)oxy)-6-(hydroxymethyl)tetrahydro-2H-pyran-3,4,5-triol] | did not exhibit inhibition |  |  |  | 
5 | N[C@@H]1[C@@H](O)[C@@H](O[C@H]2O[C@H](CO)[C@@H](O)[C@H](O)[C@H]2O)O[C@H](CO)[C@H]1O [3-TreNH2, (2R,3R,4S,5S,6R)-2-(((2R,3R,4S,5S,6R)-4-amino-3,5-dihydroxy-6-(hydroxymethyl)tetrahydro-2H-pyran-2-yl)oxy)-6-(hydroxymethyl)tetrahydro-2H-pyran-3,4,5-triol] |  | moderate inhibitor |  |  | 
6 | [N-]=[N+]=N[C@H]1[C@H](O)[C@@H](O)[C@@H](O[C@H]2O[C@H](CO)[C@@H](O)[C@H](O)[C@H]2O)O[C@@H]1CO [4-TreAz, (2R,3R,4S,5S,6R)-2-(((2R,3R,4S,5S,6S)-5-azido-3,4-dihydroxy-6-(hydroxymethyl)tetrahydro-2H-pyran-2-yl)oxy)-6-(hydroxymethyl)tetrahydro-2H-pyran-3,4,5-triol] | did not exhibit inhibition |  |  |  | overall activity against M. tuberculosis (M. tuberculosis biofilm): did not show activity; overall activity against M. smegmatis (M. smegmatis biofilm; biofilm inhibition, normal growth inhibition and antibiotic synergism assays): did not show activity
7 | N[C@H]1[C@H](O)[C@@H](O)[C@@H](O[C@H]2O[C@H](CO)[C@@H](O)[C@H](O)[C@H]2O)O[C@@H]1CO [4-TreNH2, (2R,3R,4S,5S,6R)-2-(((2R,3R,4S,5S,6S)-5-amino-3,4-dihydroxy-6-(hydroxymethyl)tetrahydro-2H-pyran-2-yl)oxy)-6-(hydroxymethyl)tetrahydro-2H-pyran-3,4,5-triol] | did not exhibit inhibition | inhibit | inhibits | did not exhibit activity | 
8 | [N-]=[N+]=N[C@@H]1[C@H](O)[C@@H](O)[C@@H](O[C@H]2O[C@H](CO)[C@@H](O)[C@H](O)[C@H]2O)O[C@@H]1CO [4-epi-TreAz, (2R,3R,4S,5S,6R)-2-(((2R,3R,4S,5R,6S)-5-azido-3,4-dihydroxy-6-(hydroxymethyl)tetrahydro-2H-pyran-2-yl)oxy)-6-(hydroxymethyl)tetrahydro-2H-pyran-3,4,5-triol] |  | do not | no inhibitory effects | no inhibitory effects | 
9 | N[C@@H]1[C@H](O)[C@@H](O)[C@@H](O[C@H]2O[C@H](CO)[C@@H](O)[C@H](O)[C@H]2O)O[C@@H]1CO [4-epi-TreNH2, (2R,3R,4S,5S,6R)-2-(((2R,3R,4S,5R,6S)-5-amino-3,4-dihydroxy-6-(hydroxymethyl)tetrahydro-2H-pyran-2-yl)oxy)-6-(hydroxymethyl)tetrahydro-2H-pyran-3,4,5-triol] |  | do not | no inhibitory effects | no inhibitory effects | 
10 | NC[C@H]1O[C@H](O[C@H]2O[C@H](CO)[C@@H](O)[C@H](O)[C@H]2O)[C@H](O)[C@@H](O)[C@@H]1O [6-TreNH2, (2R,3S,4S,5R,6R)-2-(aminomethyl)-6-(((2R,3R,4S,5S,6R)-3,4,5-trihydroxy-6-(hydroxymethyl)tetrahydro-2H-pyran-2-yl)oxy)tetrahydro-2H-pyran-3,4,5-triol] |  | no inhibitory effect | no inhibitory effect |  | inhibition of M. tuberculosis planktonic growth (previous research) (M. tuberculosis [2]): did not exhibit inhibition
11 | COc1nc2ccc(Br)cc2cc1[C@@H](c1ccccc1)[C@@](O)(CCN(C)C)c1cccc2ccccc12 [BDQ, bedaquiline] |  |  |  |  | IC95 WT [3]: 0.59 µg/mL (≈ 1.06 µM); IC95 2-treNH2 [3]: 0.78 µg/mL; IC95 4-treNH2 [3]: 0.39 µg/mL; IC95 6-treNH2 [3]: 0.57 µg/mL
12 | NNC(=O)c1ccncc1 [INH, isoniazid] |  |  |  |  | IC95 WT [3]: 0.28 µg/mL (≈ 2.04 µM); IC95 2-treNH2 [3]: 0.21 µg/mL; IC95 4-treNH2 [3]: 0.44 µg/mL; IC95 6-treNH2 [3]: 0.33 µg/mL
13 | CO[C@H]1/C=C/O[C@@]2(C)Oc3c(C)c(O)c4c(O)c(c(/C=N/N5CCN(C)CC5)c(O)c4c3C2=O)NC(=O)/C(C)=C\C=C\[C@H](C)[C@H](O)[C@@H](C)[C@@H](O)[C@@H](C)[C@H](OC(C)=O)[C@@H]1C [RIF, rifampicin] |  |  |  |  | IC95 WT [3]: 0.18 µg/mL (≈ 0.219 µM); IC95 2-treNH2 [3]: 0.09 µg/mL; IC95 4-treNH2 [3]: 0.14 µg/mL; IC95 6-treNH2 [3]: 0.24 µg/mL

Reference: US20250205260A1, “ADJUNCTIVE TREATMENT OF MYCOBACTERIAL DISEASES” (UNIVERSITY OF SOUTHERN CALIFORNIA, priority 2022, published 2025)
